Earlier results on one molecule are cited in patent publication US12655468B2, “Genetic predictors of a response to treatment with CRHR1 antagonists” (HMNC Holding GmbH, priority 2015, dated 2026).

In the data set the test system is mice overexpressing CRH in the forebrain.

Take `COCC(COC)Nc1nc(C)nc2c(-c3ccc(Cl)cc3Cl)c(C)nn12` [DMP696]: the “effect on increased REM sleep” value is “could reverse the REM enhancement”.
